Assays:
Assay in all cases: relative viability (nuclei count vs DMSO), 5 days (fraction); higher = more cells survive
4EGI-1 + Olaparib = compound: O=C(O)C(Cc1ccccc1[N+](=O)[O-])=NNc1nc(-c2ccc(Cl)c(Cl)c2)cs1 (mixture of isomers) [4EGI-1] + O=C(c1cc(Cc2n[nH]c(=O)c3ccccc23)ccc1F)N1CCN(C(=O)C2CC2)CC1 [Olaparib] (partner 8 µM)
Method in brief: (§1)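 Values are medians from duplicate plates. Each reflects relative viability, defined as the nuclei count of treated wells over that of vehicle wells. Lung cancer cell lines in 1536-well plates were pin-tool dosed one day after seeding with one drug alone or with a fixed anchor-drug dose plus five library-drug doses (not always all listed) in √10 steps, then fixed, stained and imaged at 4× after 5 days.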

4EGI-1 + Crizotinib = compound: O=C(O)C(Cc1ccccc1[N+](=O)[O-])=NNc1nc(-c2ccc(Cl)c(Cl)c2)cs1 (mixture of isomers) [4EGI-1] + C[C@@H](Oc1cc(-c2cnn(C3CCNCC3)c2)cnc1N)c1c(Cl)ccc(F)c1Cl [Crizotinib] (partner 1 µM)
Method in brief: as §1

XMD8-85 + Linsitinib = compound: CN1CCN(CC1)C2=CC(=C(C=C2)NC3=NC=C4C(=N3)N(C5=CC=CC=C5C(=O)N4C)C)OC [XMD8-85] + C[C@]1(O)C[C@@H](c2nc(-c3ccc4ccc(-c5ccccc5)nc4c3)c3c(N)nccn32)C1 [Linsitinib] (partner 1 µM)
Method in brief: as §1

4EGI-1 + Pemetrexed = compound: O=C(O)C(Cc1ccccc1[N+](=O)[O-])=NNc1nc(-c2ccc(Cl)c(Cl)c2)cs1 (mixture of isomers) [4EGI-1] + Nc1nc2[nH]cc(CCc3ccc(C(=O)N[C@@H](CCC(=O)O)C(=O)O)cc3)c2c(=O)[nH]1 [Pemetrexed] (partner 0.2 µM)
Method in brief: as §1

Cell Line	relative viability (4EGI-1 + Olaparib; first compound 0.5 µM)	relative viability (4EGI-1 + Olaparib; first compound 1.581 µM)	relative viability (4EGI-1 + Olaparib; first compound 5 µM)	relative viability (4EGI-1 + Olaparib; first compound 15.81 µM)	relative viability (4EGI-1 + Olaparib; first compound 50 µM)	relative viability (4EGI-1 + Crizotinib; first compound 0.5 µM)	relative viability (4EGI-1 + Crizotinib; first compound 1.581 µM)	relative viability (4EGI-1 + Crizotinib; first compound 5 µM)	relative viability (4EGI-1 + Crizotinib; first compound 15.81 µM)	relative viability (4EGI-1 + Crizotinib; first compound 50 µM)	relative viability (XMD8-85 + Linsitinib; first compound 0.08 µM)	relative viability (XMD8-85 + Linsitinib; first compound 0.253 µM)	relative viability (XMD8-85 + Linsitinib; first compound 0.8 µM)	relative viability (XMD8-85 + Linsitinib; first compound 2.53 µM)	relative viability (XMD8-85 + Linsitinib; first compound 8 µM)	relative viability (4EGI-1 + Pemetrexed; first compound 0.5 µM)	relative viability (4EGI-1 + Pemetrexed; first compound 1.581 µM)	relative viability (4EGI-1 + Pemetrexed; first compound 5 µM)	relative viability (4EGI-1 + Pemetrexed; first compound 15.81 µM)	relative viability (4EGI-1 + Pemetrexed; first compound 50 µM)
NCI-H2087	0.633	0.562	0.542	0.278	0.162	0.896	0.754	0.811	0.643	0.478	0.929	1.01	1.09	1.06	0.7	0.651	0.648	0.637	0.637	0.481
NCI-H2126	1	0.927	0.858	0.942	0.654	1.03	1.05	1.03	1.03	0.777	0.69	–	0.766	0.726	0.681	0.793	0.712	0.681	0.596	0.537
NCI-H2228	0.947	0.702	0.693	0.536	0.128	0.416	0.508	0.653	0.502	0.195	0.587	0.944	0.609	0.858	0.444	0.377	0.472	0.367	0.338	0.164
NCI-H2347	0.555	0.487	0.567	0.607	0.533	0.841	0.667	0.753	0.567	0.556	0.91	0.923	0.808	1.04	0.796	0.438	0.407	0.452	0.414	0.413
NCI-H2405	0.909	–	0.883	0.866	0.395	0.865	0.747	0.909	0.896	0.854	–	0.912	0.951	0.735	0.739	1.1	–	1.3	1.05	0.285
NCI-H3122	0.578	0.554	0.667	0.448	0.301	0.274	0.262	0.281	0.24	0.221	1.03	0.95	1.03	1.06	1.09	0.196	0.192	0.189	0.224	0.175
PC-3 [JPC-3]	1.16	–	1.17	0.526	0.484	0.998	0.883	0.876	–	0.55	0.958	0.994	1.02	1.09	–	1.09	–	1.21	0.491	0.333
PC-14	0.295	–	0.239	0.1	0.0599	1.08	0.617	0.875	–	0.907	1.06	0.849	0.914	0.843	0.86	0.135	–	0.159	0.185	0.0861
RERF-LC-KJ	0.97	–	0.902	0.489	0.254	0.852	0.676	0.815	0.675	0.684	0.826	0.903	0.881	0.804	0.883	0.51	0.351	0.444	0.457	0.431
SK-LU-1	0.484	0.448	0.439	0.431	0.224	0.891	1.05	0.943	0.688	0.334	0.947	1.11	1.12	1.07	0.91	0.932	1.02	0.992	1.06	0.319
SK-MES-1	0.767	0.508	0.639	0.229	0.148	1.04	0.957	1.02	0.872	0.921	1.09	0.942	0.95	1	0.964	0.979	0.713	0.968	0.751	0.24
SW 1573	0.529	0.317	0.672	0.213	0.113	0.937	0.842	0.87	0.722	0.424	0.873	0.802	–	0.698	0.655	0.963	0.742	0.794	0.329	0.126
UMC-11	0.36	0.35	0.369	0.332	0.222	0.718	0.594	0.643	0.602	0.314	1.01	0.922	1.15	0.848	0.512	0.841	0.792	0.863	0.805	0.52
